Data taken from US20250353873A1, “COMPOUNDS AND METHODS FOR MODULATING APOE EXPRESSION” (Ionis Pharmaceuticals, Inc., priority 2024, published 2025).
Strand notation (5' to 3'): a small letter for the sugar, then the base; units joined by * are phosphorothioate-linked, units joined directly phosphodiester-linked; [ ] holds rarer units or linkages, { } end groups; capitals alone tell only the bases. [ms] = mesyl phosphoramidate linkage; e = 2'-O-(2-methoxyethyl) (MOE); [5mC] = 5-methylcytosine; d = 2'-deoxy (DNA)

How the values were obtained:
human APOE RNA [1] = test: Dose-dependent inhibition of human APOE RNA in HepG2 cells, electroporation, 24 hours (Example 6); type: cell-based
Summary of the method: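 HepG2 cells, 50,000 per well, electroporated with various oligonucleotide concentrations. APOE RNA measured with primer probe set RTS3073, normalized to GAPDH (RTS104), expressed as % of untreated control; IC50 then calculated.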

human APOE RNA [2] = test: Activity in APOE 1549 knock-in mice, single ICV bolus, 2 weeks (Example 7); type: in vivo; conditions: single ICV bolus of 300 μg, two weeks post treatment, Table 17
Summary of the method: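 Human APOE knock-in mice (model 41549), 2 per group, given a single 300 µg ICV bolus of oligonucleotide, with PBS as control. After 2 weeks, APOE RNA in cortex and spinal cord measured by RT-qPCR, normalized to mouse Ppia, and expressed as % of PBS control.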

1693105: 6-10-4 MOE gapmer CTTGGTGAATCTTTATTAAA, linkages sosssszzzssssszssss (e[5mC]*eTeT*eG*eG*eT*dG[ms]dA[ms]dA[ms]dT*d[5mC]*dT*dT*dT*dA[ms]dT*eT*eA*eA*eA) [compound 1693105]
IC50 (human APOE RNA [1]): 1.1 µM | APOE RNA (% UTC) (human APOE RNA [1]; 5 nM): 117 % UTC | APOE RNA (% UTC) (human APOE RNA [1]; 13 nM): 104 % UTC | APOE RNA (% UTC) (human APOE RNA [1]; 33 nM): 118 % UTC | APOE RNA (% UTC) (human APOE RNA [1]; 82 nM): 91 % UTC | APOE RNA (% UTC) (human APOE RNA [1]; 205 nM): 101 % UTC | APOE RNA (% UTC) (human APOE RNA [1]; 512 nM): 59 % UTC | APOE RNA (% UTC) (human APOE RNA [1]; 1,280 nM): 43 % UTC | APOE RNA (% UTC) (human APOE RNA [1]; 3,200 nM): 23 % UTC | APOE RNA (% UTC) (human APOE RNA [1]; 8,000 nM): 21 % UTC | APOE RNA (% UTC) (human APOE RNA [1]; 20,000 nM): 6 % UTC | APOE RNA (% control) Cortex (human APOE RNA [2]; cortex): 51 % control | APOE RNA (% control) Spinal Cord (human APOE RNA [2]; spinal cord): 38 % control
